{"source": "paper PMC4619380", "about": "“Nicotinic Activity of Arecoline, the Psychoactive Element of \"Betel Nuts\", Suggests a Basis for Habitual Use and Anti-Inflammatory Activity” (PLoS ONE, 2015)", "key": {"[1]": {"target": "T1, α6β2β3α4β2 concatamer nAChR (Homo sapiens, UniProt P17787+P43681+Q15825)", "T1 sequence (Q15825 26-494)": "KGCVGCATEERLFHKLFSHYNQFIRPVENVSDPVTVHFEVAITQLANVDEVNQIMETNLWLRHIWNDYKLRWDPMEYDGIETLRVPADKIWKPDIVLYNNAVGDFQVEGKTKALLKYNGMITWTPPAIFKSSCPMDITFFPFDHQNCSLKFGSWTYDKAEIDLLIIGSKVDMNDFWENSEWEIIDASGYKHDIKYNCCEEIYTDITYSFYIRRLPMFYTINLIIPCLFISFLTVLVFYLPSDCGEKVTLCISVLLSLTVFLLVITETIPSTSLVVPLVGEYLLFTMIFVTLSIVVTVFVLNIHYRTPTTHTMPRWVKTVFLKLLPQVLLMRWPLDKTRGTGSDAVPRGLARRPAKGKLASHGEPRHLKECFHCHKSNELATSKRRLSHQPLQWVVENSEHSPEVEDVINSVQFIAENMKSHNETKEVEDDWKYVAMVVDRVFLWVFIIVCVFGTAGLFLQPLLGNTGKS", "T1 sequence (P17787 26-502)": "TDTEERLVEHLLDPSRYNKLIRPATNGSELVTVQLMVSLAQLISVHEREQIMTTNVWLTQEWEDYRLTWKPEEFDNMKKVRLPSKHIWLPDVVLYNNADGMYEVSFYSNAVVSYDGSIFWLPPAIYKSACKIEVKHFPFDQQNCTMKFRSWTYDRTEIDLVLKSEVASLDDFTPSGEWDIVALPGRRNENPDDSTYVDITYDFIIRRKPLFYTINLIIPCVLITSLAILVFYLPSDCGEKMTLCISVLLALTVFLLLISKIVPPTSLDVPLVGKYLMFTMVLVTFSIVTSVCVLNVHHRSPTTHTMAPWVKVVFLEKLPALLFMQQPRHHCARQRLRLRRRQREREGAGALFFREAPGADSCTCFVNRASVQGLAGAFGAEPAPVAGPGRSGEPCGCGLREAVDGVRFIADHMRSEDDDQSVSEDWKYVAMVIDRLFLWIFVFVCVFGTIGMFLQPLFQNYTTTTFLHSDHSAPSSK", "T1 sequence (P43681 27-627)": "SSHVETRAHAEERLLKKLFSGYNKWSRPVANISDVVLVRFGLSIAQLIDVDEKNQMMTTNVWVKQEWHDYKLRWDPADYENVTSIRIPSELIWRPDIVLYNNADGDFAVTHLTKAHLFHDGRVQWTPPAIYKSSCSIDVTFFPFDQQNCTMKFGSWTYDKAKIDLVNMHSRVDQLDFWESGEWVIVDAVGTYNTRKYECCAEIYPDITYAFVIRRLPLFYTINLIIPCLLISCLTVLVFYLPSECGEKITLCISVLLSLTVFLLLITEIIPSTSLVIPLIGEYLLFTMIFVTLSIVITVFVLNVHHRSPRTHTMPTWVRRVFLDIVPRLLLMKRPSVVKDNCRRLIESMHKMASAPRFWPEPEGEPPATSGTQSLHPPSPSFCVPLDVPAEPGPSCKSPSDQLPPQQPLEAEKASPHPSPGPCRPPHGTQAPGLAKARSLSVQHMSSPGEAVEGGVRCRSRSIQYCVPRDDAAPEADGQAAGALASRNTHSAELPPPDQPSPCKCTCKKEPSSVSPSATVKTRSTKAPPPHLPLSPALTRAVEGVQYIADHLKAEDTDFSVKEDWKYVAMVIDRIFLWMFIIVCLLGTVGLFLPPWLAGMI", "T1 sequence (Q05901 22-458 partner)": "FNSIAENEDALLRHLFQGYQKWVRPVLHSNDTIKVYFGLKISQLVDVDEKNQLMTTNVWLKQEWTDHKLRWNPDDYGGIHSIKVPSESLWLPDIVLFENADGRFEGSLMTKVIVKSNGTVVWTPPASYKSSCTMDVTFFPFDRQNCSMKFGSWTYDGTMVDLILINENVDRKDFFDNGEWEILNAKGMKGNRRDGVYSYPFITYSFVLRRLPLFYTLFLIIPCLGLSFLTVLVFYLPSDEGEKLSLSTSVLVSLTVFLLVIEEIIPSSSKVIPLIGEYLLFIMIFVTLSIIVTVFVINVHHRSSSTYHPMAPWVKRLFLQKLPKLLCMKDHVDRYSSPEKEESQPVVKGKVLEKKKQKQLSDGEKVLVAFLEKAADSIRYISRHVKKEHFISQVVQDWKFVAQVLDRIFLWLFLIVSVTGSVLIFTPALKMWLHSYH", "assay": "Two-electrode voltage clamp of Xenopus oocytes expressing the α6-containing concatamer", "type": "cell-based", "protocol": "(§1) Human nAChR clones and concatamers were obtained from Dr. J. Lindstrom (University of Pennsylvania, Philadelphia, PA). The human resistance-to-cholinesterase 3 (RIC-3) clone, obtained from Dr. M. Treinin (Hebrew University, Jerusalem, Israel), was co-injected with α7 to improve the level and speed of α7 receptor expression without affecting the pharmacological properties of the receptors. Subsequent to linearization and purification of the plasmid cDNAs, cRNAs were prepared using the mMessage mMachine in vitro RNA transfection kit (Ambion, Austin, TX).\n(§2) Oocytes were surgically removed from mature Xenopus laevis frogs (Nasco, Ft. Atkinson, WI) and injected with appropriate nAChR subunit cRNAs as described previously. Frogs were maintained in the Animal Care Service facility of the University of Florida, and all procedures were approved by the University of Florida Institutional Animal Care and Use Committee. In brief, the frog was first anesthetized for 15–20 min in 1.5 L frog tank water containing 1 g of 3-aminobenzoate methanesulfonate buffered with sodium bicarbonate. […]\n(§3) Experiments were conducted using OpusXpress 6000A (Molecular Devices, Union City, CA). […] The responses of α4β2 and α3β4-expressing cells were measured as peak current amplitudes, and the α7 data were calculated as net charge, as previously described.\n(§4) Data were collected at 50 Hz, filtered at 20 Hz, analyzed by Clampfit 9.2 (Molecular Devices) and Excel 2003 (Microsoft, Redmond, WA), and normalized to the averaged peak current or net-charge response of the two initial ACh controls for each oocyte. Data were expressed as means ± SEM from at least four oocytes for each experiment and plotted by Kaleidagraph 3.0.2 (Abelbeck Software, Reading, PA). Multi-cell averages were calculated for comparisons of complex responses. […] Averages of the normalized data were calculated for each of the 10,500 points in each of the 210 s traces (acquired at 50 Hz), as well as the standard errors for those averages."}, "LS α4(3)β2(2) nAChR [2]": {"target": "T2, LS α4(3)β2(2) nAChR (Homo sapiens, UniProt P17787+P43681)", "T2 construct": "host or cells: Xenopus laevis oocytes injected with cRNA", "T2 sequence (P17787+P43681 fused)": "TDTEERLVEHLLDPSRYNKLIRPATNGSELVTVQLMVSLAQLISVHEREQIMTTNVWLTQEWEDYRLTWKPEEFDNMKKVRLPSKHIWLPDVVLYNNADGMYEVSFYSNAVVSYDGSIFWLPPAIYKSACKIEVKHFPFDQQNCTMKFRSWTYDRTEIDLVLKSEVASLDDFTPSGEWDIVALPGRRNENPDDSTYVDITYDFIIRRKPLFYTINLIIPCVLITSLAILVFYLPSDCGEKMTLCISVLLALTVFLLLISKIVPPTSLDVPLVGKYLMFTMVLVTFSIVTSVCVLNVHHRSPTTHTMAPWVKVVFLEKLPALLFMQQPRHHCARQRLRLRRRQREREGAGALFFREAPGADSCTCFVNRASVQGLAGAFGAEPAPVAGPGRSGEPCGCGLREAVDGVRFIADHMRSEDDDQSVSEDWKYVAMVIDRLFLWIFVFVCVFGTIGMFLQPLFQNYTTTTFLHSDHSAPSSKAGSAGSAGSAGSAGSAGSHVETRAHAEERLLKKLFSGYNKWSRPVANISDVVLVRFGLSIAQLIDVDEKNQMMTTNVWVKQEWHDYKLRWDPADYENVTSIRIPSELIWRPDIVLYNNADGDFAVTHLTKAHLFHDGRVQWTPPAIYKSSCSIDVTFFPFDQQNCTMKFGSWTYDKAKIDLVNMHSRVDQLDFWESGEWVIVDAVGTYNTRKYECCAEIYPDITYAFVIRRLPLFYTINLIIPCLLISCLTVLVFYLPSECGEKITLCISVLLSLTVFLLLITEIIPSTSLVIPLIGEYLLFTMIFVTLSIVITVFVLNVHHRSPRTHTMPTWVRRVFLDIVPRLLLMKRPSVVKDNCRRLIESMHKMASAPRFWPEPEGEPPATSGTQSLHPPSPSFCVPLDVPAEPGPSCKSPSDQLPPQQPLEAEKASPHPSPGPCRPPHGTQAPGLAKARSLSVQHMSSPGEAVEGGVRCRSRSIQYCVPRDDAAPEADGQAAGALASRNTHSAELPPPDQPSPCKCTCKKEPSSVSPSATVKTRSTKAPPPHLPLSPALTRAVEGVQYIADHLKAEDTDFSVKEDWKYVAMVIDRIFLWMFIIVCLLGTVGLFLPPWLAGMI", "T2 sequence (P43681 27-627)": "as the sequence (P43681 27-627) above", "assay": "Two-electrode voltage clamp of Xenopus oocytes expressing low sensitivity α4β2 nAChR (β2-α4 concatamer plus α4 monomer)", "type": "cell-based", "protocol": "as §1, with “TX). […]” for “TX).”\nas §3\n(§5) Data were collected at 50 Hz, filtered at 20 Hz, analyzed by Clampfit 9.2 (Molecular Devices) and Excel 2003 (Microsoft, Redmond, WA), and normalized to the averaged peak current or net-charge response of the two initial ACh controls for each oocyte. Data were expressed as means ± SEM from at least four oocytes for each experiment and plotted by Kaleidagraph 3.0.2 (Abelbeck Software, Reading, PA). Multi-cell averages were calculated for comparisons of complex responses. […]"}, "[3]": {"test_system": "α4β2 nAChR (mixed populations formed from monomers)", "assay": "Two-electrode voltage clamp of Xenopus oocytes expressing α4β2 nAChR formed from monomers", "type": "cell-based, human", "settings": "100 μM arecoline; α4 and β2 monomers", "protocol": "as §1, with “TX). […]” for “TX).”\nas §3, §5"}, "HS α4(2)β2(3) nAChR [4]": {"target": "T3, HS α4(2)β2(3) nAChR (Homo sapiens, UniProt P17787+P43681)", "T3 construct": "host or cells: Xenopus laevis oocytes injected with cRNA", "T3 sequence (P17787+P43681 fused)": "as the sequence (P17787+P43681 fused) above", "T3 sequence (P17787 26-502)": "as the sequence (P17787 26-502) above", "assay": "Two-electrode voltage clamp of Xenopus oocytes expressing high sensitivity α4β2 nAChR (β2-α4 concatamer plus β2 monomer)", "type": "cell-based", "protocol": "as §1, §2, §3\nas §4, with “averages. […]” for “averages.”"}, "[5]": {"design": "method as in PMID 20412403", "settings": "90% of betel chewers, prior to chewing; cited from earlier work"}, "human α7 nAChR": {"target": "T4, human α7 nAChR (Homo sapiens, UniProt P36544)", "T4 construct": "host or cells: Xenopus laevis oocytes injected with cRNA", "T4 sequence (P36544 23-502)": "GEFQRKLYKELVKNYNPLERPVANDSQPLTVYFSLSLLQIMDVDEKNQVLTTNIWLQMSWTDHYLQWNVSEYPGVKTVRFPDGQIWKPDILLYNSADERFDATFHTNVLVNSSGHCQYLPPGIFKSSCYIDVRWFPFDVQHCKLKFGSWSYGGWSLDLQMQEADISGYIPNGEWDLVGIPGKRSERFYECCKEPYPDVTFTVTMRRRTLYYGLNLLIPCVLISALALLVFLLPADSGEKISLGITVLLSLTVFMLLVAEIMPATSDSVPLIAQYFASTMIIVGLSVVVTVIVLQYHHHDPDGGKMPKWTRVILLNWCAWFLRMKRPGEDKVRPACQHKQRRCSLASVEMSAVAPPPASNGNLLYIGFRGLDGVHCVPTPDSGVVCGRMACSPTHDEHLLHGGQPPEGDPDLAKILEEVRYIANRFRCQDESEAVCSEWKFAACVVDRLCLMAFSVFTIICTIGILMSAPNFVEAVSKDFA", "assay": "Two-electrode voltage clamp of Xenopus oocytes expressing α7 nAChR (co-injected with RIC-3)", "type": "cell-based", "settings": "for EC50: normalized to 60 μM ACh controls; for activation of α7 when applied alone (absence of PAM): no PNU-120596, compared to 60 μM ACh controls; for activation of α7 in the presence of PNU-120596: co-applied with 10 μM PNU-120596", "protocol": "as §1\nOocytes were surgically removed from mature Xenopus laevis frogs (Nasco, Ft. Atkinson, WI) and injected with appropriate nAChR subunit cRNAs as described previously. Frogs were maintained in the Animal Care Service facility of the University of Florida, and all procedures were approved by the University of Florida Institutional Animal Care and Use Committee. In brief, the frog was first anesthetized for 15–20 min in 1.5 L frog tank water containing 1 g of 3-aminobenzoate methanesulfonate buffered with sodium bicarbonate. The harvested oocytes were treated with 1.25 mg/ml collagenase (Worthington Biochemicals, Freehold, NJ) for 2 h at room temperature in calcium-free Barth’s solution (88 mM NaCl, 1 mM KCl, 2.38 mM NaHCO3, 0.82 mM MgSO4, 15 mM HEPES, and 12 mg/l tetracycline, pH 7.6) to remove the follicular layer. Stage V oocytes were subsequently isolated and injected with 50 nl of 5–20 ng nAChR subunit cRNA. Recordings were carried out 1–7 days after injection.\nExperiments were conducted using OpusXpress 6000A (Molecular Devices, Union City, CA). Both the voltage and current electrodes were filled with 3 M KCl. Oocytes were voltage-clamped at -60 mV. The oocytes were bath-perfused with Ringer’s solution (115 mM NaCl, 2.5 mM KCl, 1.8 mM CaCl2, 10 mM HEPES, and 1 μM atropine, pH 7.2) at 2 ml/min for α7 receptors and at 4 ml/min for other subtypes. To evaluate the effects of experimental compounds compared to ACh-evoked responses of various nAChR subtypes expressed in oocytes, baseline conditions were defined by two initial applications of ACh made before test applications. The solutions were applied from a 96-well plate via disposable tips, and the test compounds were applied alone, co-applied with ACh, or co-applied with PNU-120596. For the concentration-response study, drug applications alternated between ACh controls and experimental compounds. Unless otherwise indicated, drug applications were 12 s in duration followed by a 181 s washout period for α7 receptors and 6 s with a 241 s washout for other subtypes. A typical recording for each oocyte constituted two initial control applications of ACh, an experimental compound application, and then a follow-up control application of ACh to determine the desensitization or rundown of the receptors. The control ACh concentrations were 60 μM for α7, 100 μM for α3β4, and 30 μM for α4β2. The responses of α4β2 and α3β4-expressing cells were measured as peak current amplitudes, and the α7 data were calculated as net charge, as previously described.\nData were collected at 50 Hz, filtered at 20 Hz, analyzed by Clampfit 9.2 (Molecular Devices) and Excel 2003 (Microsoft, Redmond, WA), and normalized to the averaged peak current or net-charge response of the two initial ACh controls for each oocyte. Data were expressed as means ± SEM from at least four oocytes for each experiment and plotted by Kaleidagraph 3.0.2 (Abelbeck Software, Reading, PA). Multi-cell averages were calculated for comparisons of complex responses. To permit better comparisons between experiments each single cell response was normalized to the average of the two initial controls obtained from that cell. Averages of the normalized data were calculated for each of the 10,500 points in each of the 210 s traces (acquired at 50 Hz), as well as the standard errors for those averages."}, "HS α4(2)β2(3) nAChR [6]": {"target": "T3, HS α4(2)β2(3) nAChR", "settings": "cited from earlier work"}, "[7]": {"target": "T1, α6β2β3α4β2 concatamer nAChR", "design": "method as in PMID 20923852", "settings": "cited from earlier work"}, "LS α4(3)β2(2) nAChR [8]": {"target": "T2, LS α4(3)β2(2) nAChR", "settings": "cited from earlier work"}, "[9]": {"settings": "100 μM arecoline co-applied with 10 μM PNU-120596, 60 μM ACh controls, n = 7"}, "[10]": {"settings": "co-applied with 30 μM PNU-120596, relative to 60 μM ACh controls"}}, "note": "“Also recorded” adds a separate entry of the source. Read-outs that look alike come from different tables or passages of the source. Marks after values point to notes of the source that are not given here.", "data": [{"smiles": "COC(=O)C1=CCCN(C)C1", "note": "[arecoline]", "values": [{"measurement": "response to arecoline (activation)", "setting": "[1]; 100 μM arecoline", "result": "small but significant activity; also recorded: substantially larger and well above the threshold of detection"}, {"measurement": "EC50", "setting": "[1]; α6-containing receptor, responses relative to ACh maximum", "result": "21 ± 4", "unit": "µM"}, {"measurement": "Imax relative to ACh", "setting": "[1]; α6β2β3α4β2", "result": "0.056 ± 0.003"}, {"measurement": "EC50", "setting": "LS α4(3)β2(2) nAChR [2]; LS α4β2, responses relative to ACh maximum", "result": "75 ± 7", "unit": "µM"}, {"measurement": "Imax relative to ACh", "setting": "LS α4(3)β2(2) nAChR [2]; α4(3)β2(2)", "result": "0.036 ± 0.003"}, {"measurement": "response to arecoline (activation)", "setting": "[3]", "result": "small but significant activity; also recorded: substantially larger and well above the threshold of detection"}, {"measurement": "EC50", "setting": "HS α4(2)β2(3) nAChR [4]; HS α4β2, responses relative to ACh maximum", "result": "14 ± 3", "unit": "µM"}, {"measurement": "mecamylamine-sensitive steady-state activation relative to ACh maximum", "setting": "HS α4(2)β2(3) nAChR [4]; prolonged bath application of 3 μM arecoline, revealed with 100 μM mecamylamine, seven cells", "result": "~1", "unit": "%"}, {"measurement": "Imax relative to ACh", "setting": "HS α4(2)β2(3) nAChR [4]; α4(2)β2(3)", "result": "0.054 ± 0.004"}, {"measurement": "residual salivary level of arecoline", "setting": "[5]", "result": "at least 400 nM"}, {"measurement": "effect on subsequent ACh-evoked responses", "setting": "human α7 nAChR; 60 μM ACh applied after the test application and wash", "result": "largely unaffected"}, {"measurement": "response relative to ACh maximum", "setting": "human α7 nAChR; 100 μM arecoline applied alone, extrapolated from ACh controls and earlier ACh concentration-response studies", "result": "less than 1%"}, {"measurement": "net charge of response relative to ACh controls", "setting": "human α7 nAChR; [9]", "result": "37 ± 10", "unit": "times"}, {"measurement": "peak amplitude of response relative to ACh controls", "setting": "human α7 nAChR; [9]", "result": "9.6 ± 3.4", "unit": "times"}, {"measurement": "EC50", "setting": "human α7 nAChR; co-applied with 30 μM PNU-120596, read-out: EC50, net charge", "result": "93 ± 2", "unit": "µM"}, {"measurement": "EC50", "setting": "human α7 nAChR; co-applied with 30 μM PNU-120596, read-out: EC50, peak currents", "result": "60 ± 7", "unit": "µM"}, {"measurement": "Imax relative to ACh controls, net charge", "setting": "human α7 nAChR; [10]", "result": "49 ± 1"}, {"measurement": "Imax relative to ACh controls, peak currents", "setting": "human α7 nAChR; [10]", "result": "15 ± 1"}, {"measurement": "activation of α7 when applied alone (absence of PAM)", "setting": "human α7 nAChR", "result": "did not produce significant activation"}, {"measurement": "IC50", "setting": "human α7 nAChR; simple co-application with 60 μM ACh, no PAM, read-out: IC50 for inhibiting 60 μM ACh-evoked responses", "result": "> 1000", "unit": "µM"}]}, {"smiles": "C[N+](C)(C)CCOC(N)=O", "note": "[carbachol, reference compound]", "values": [{"measurement": "activation of α7 in the presence of PNU-120596", "setting": "human α7 nAChR", "result": "stimulated α7 receptors under both conditions"}, {"measurement": "activation of α7 when applied alone (absence of PAM)", "setting": "human α7 nAChR", "result": "stimulated α7 receptors under both conditions"}]}, {"smiles": "O=C1CCCN1CC#CCN1CCCC1", "note": "[oxotremorine, reference compound]", "values": [{"measurement": "activation of α7 in the presence of PNU-120596", "setting": "human α7 nAChR", "result": "relatively little additional activation"}, {"measurement": "activation of α7 when applied alone (absence of PAM)", "setting": "human α7 nAChR", "result": "small but significant activation"}]}, {"smiles": "C[C@@H]1O[C@H](C[N+](C)(C)C)C[C@H]1O", "note": "[muscarine, reference compound]", "values": [{"measurement": "activation of α7 in the presence of PNU-120596", "setting": "human α7 nAChR", "result": "failed to activate the receptors under either condition"}, {"measurement": "activation of α7 when applied alone (absence of PAM)", "setting": "human α7 nAChR", "result": "failed to activate the receptors under either condition"}]}, {"smiles": "O=c1cccc2n1C[C@@H]1CNC[C@H]2C1", "note": "[cytisine]", "values": [{"measurement": "Imax relative to ACh", "setting": "HS α4(2)β2(3) nAChR [6]", "result": "≤ 0.05 ^a"}, {"measurement": "Imax relative to ACh", "setting": "[7]", "result": "0.11 ± 0.03 ^c"}, {"measurement": "Imax relative to ACh", "setting": "LS α4(3)β2(2) nAChR [8]", "result": "0.10 ± 0.02 ^a"}]}, {"smiles": "c1cnc2cc3c(cc2n1)[C@@H]1CNC[C@H]3C1", "note": "[varenicline]", "values": [{"measurement": "Imax relative to ACh", "setting": "HS α4(2)β2(3) nAChR [6]", "result": "0.13 ^b"}, {"measurement": "Imax relative to ACh", "setting": "[7]", "result": "0.18 ± 0.11 ^c"}, {"measurement": "Imax relative to ACh", "setting": "LS α4(3)β2(2) nAChR [8]", "result": "0.08 ^b"}]}, {"smiles": "CC(=O)OC(C)C[N+](C)(C)C", "note": "(stereo not shown) [methacholine, reference compound]", "values": [{"measurement": "activation of α7 in the presence of PNU-120596", "setting": "human α7 nAChR", "result": "not as active as arecoline"}, {"measurement": "activation of α7 when applied alone (absence of PAM)", "setting": "human α7 nAChR", "result": "silent agonist"}]}]}
